# Source: US12091425B2 (AMGEN INC., priority 2016, dated 2024)
# Like-named read-outs stand apart in the source and are kept apart here.
# Columns and labels:
# [1] = from C=CC/C=C/[C@H](O)[C@@H]1CC[C@H]1CN1C[C@@]2(CCCc3cc(Cl)ccc32)COc2ccc(C(=O)NS(=O)(=O)[C@@H](CC#N)CCC=C)cc21; rcm bond; 16-membered ring; Hoveyda-Grubbs II (20 mol%), reduced pressure; AcOH; 2.89 mM; […]
# [2] = target: T1, Mcl-1/Bim interaction, recombinant human Mcl-1 (171-327) (Homo sapiens, UniProt Q07820); assay: Cell free Mcl-1: Bim Affinity Assay (Mcl-1 HTRF); type: binding
# T1 construct: made in house
# Summary of the method: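 Read-out is time-resolved FRET after overnight incubation, using a biotin-labelled peptide from human Bim (51-76) as the binding partner; IC50 was derived from competition curves.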
# [3] = system: OPM-2 human multiple myeloma cell line; assay: Cell Viability Assay (OPM-2 10 FBS); type: cell-based; details: Homo sapiens, OPM-2, 16 h, OPM-2 cells, 16 h, CellTiter-Glo
# Summary of the method: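 IC50 from 4-parameter logistic fit of CellTiter-Glo luminescence. 3000 cells/well, 10% FBS medium, serial compound dilutions, 16 h, 37 °C/5% CO2; read 25 min post-reagent.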
# [4] = TR-FRET, 0.1 nM Mcl-1 (171-327), 0.05 nM biotin-Bim (51-76)
# [5] = cell free Mcl-1:Bim TR-FRET, recombinant human Mcl-1 (171-327)
# T1 sequence (Q07820 171-327): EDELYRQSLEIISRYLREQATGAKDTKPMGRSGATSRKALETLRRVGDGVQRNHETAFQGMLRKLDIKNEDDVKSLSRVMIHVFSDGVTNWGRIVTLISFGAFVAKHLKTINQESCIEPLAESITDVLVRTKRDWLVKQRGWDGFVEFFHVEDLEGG
molecule,measurement,setting,value
N#CC[C@@H]1CC/C=C/[C@H](O)[C@@H]2CC[C@H]2CN2C[C@@]3(CCCc4cc(Cl)ccc43)COc3ccc(cc32)C(=O)NS1(=O)=O,"ring closure, yield after HPLC",[1],3.43%
"C[C@H]1[C@@H]2/C=C/[C@H](O)[C@@H]3CC[C@H]3CN3C[C@@]4(CCCc5cc(Cl)ccc54)COc4ccc(cc43)C(=O)NS(=O)(=O)[C@@H]1CCC2 [Example 112, (1S,3′R,6′R,7′S,8′E,10′S,14′R,28′S)-6-chloro-7′-hydroxy-28′-methyl-3,4-dihydro-2H,17′H-spiro[naphthalene-1,24′-[22]oxa[15]thia[1,16]diazapentacyclo[16.7.2.1^10,14.0^3,6.0^21,26]octacosa[8,18,20,26]tetraen]-17′-one 15′,15′-dioxide]","ring closure, isolated yield","from C[C@H]1[C@H](/C=C/[C@H](O)[C@@H]2CC[C@H]2CN2C[C@@]3(CCCc4cc(Cl)ccc43)COc3ccc(C(=O)O)cc32)CCC[C@H]1S(N)(=O)=O, amide bond, 16-membered ring, EDC/DMAP, DCM, 2.0 mM, 16.0 h",21%
same,IC50,[2]; [4],0.63 nM
same,IC50,[3],172 nM
"O=C1NS(=O)(=O)CC/C=C/[C@@H](O)[C@@H]2CC[C@H]2CN2C[C@@]3(CCCc4cc(Cl)ccc43)COc3ccc1cc32 [Example 221, (1S,3′R,6′R,7′R,8′E)-6-chloro-7′-hydroxy-3,4-dihydro-2H,14′H-spiro[naphthalene-1,21′-[19]oxa[12]thia[1,13]diazatetracyclo[13.7.2.0^3,6.0^18,23]tetracosa [8,15,17,23]tetraen]-14′-one 12′,12′-dioxide]","ring closure, isolated yield","from C=CCCS(=O)(=O)NC(=O)c1ccc2c(c1)N(C[C@@H]1CC[C@H]1[C@H](O)/C=C/CCC)C[C@@]1(CCCc3cc(Cl)ccc31)CO2, rcm bond, 15-membered ring, Hoveyda-Grubbs II (portionwise), AcOH, 5.2 mM",48%
same,IC50,[2]; [4],10.8 nM
"O=C1NS(=O)(=O)CCCC/C=C/[C@@H](O)[C@@H]2CC[C@H]2CN2C[C@@]3(CCCc4cc(Cl)ccc43)COc3ccc1cc32 [Example 227, (1S,3′R,6′R,7′R,8′E)-6-chloro-7′-hydroxy-3,4-dihydro-2H,16′H-spiro[naphthalene-1,23′-[21]oxa[14]thia[1,15]diazatetracyclo[15.7.2.0^3,6.0^20,25]hexacosa[8,17,19,25]tetraen]-16′-one 14′,14′-dioxide]","ring closure, isolated yield","from C=CCCCCS(=O)(=O)NC(=O)c1ccc2c(c1)N(C[C@@H]1CC[C@H]1[C@H](O)/C=C/CCC)C[C@@]1(CCCc3cc(Cl)ccc31)CO2, rcm bond, 17-membered ring, Hoveyda-Grubbs II, AcOH, 5.2 mM",59%
same,IC50,[2]; [4],32.8 nM
same,IC50,[3],21400 nM
"CC[C@@H]1CC/C=C/C[C@H](O)[C@@H]2CC[C@H]2CN2C[C@@]3(CCCc4cc(Cl)ccc43)COc3ccc(cc32)C(=O)NS1(=O)=O [Example 553, (1S,3′R,6′R,7′S,9′E,13′R)-6-chloro-13′-ethyl-7′-hydroxy-3,4-dihydro-2H,16′H-spiro[naphthalene-1,23′-[21]oxa[14]thia[1,15]diazatetracyclo[15.7.2.0^3,6.0^20,25]hexacosa[9,17,19,25]tetraen]-16′-one 14′,14′-dioxide]","ring closure, isolated yield","from C=CCC[C@@H](CC)S(=O)(=O)NC(=O)c1ccc2c(c1)N(C[C@@H]1CC[C@H]1[C@@H](O)CC=C)C[C@@]1(CCCc3cc(Cl)ccc31)CO2, rcm bond, 17-membered ring, Hoveyda-Grubbs II (10 mol%), DCM, 1.4 mM, 45.0 °C, 6.0 h",38%
same,IC50,[2]; [5],4 nM
"C[C@@H]1C/C=C/[C@H](O)[C@@H]2CC[C@H]2CN2C[C@@]3(CCCc4cc(Cl)ccc43)COc3ccc(cc32)C(=O)NS1(=O)=O [Example 758, (1S,3′R,6′R,7′S,8′E,11′R)-6-chloro-7′-hydroxy-11′-methyl-3,4-dihydro-2H,14′H-spiro[naphthalene-1,21′-[19]oxa[12]thia[1,13]diazatetracyclo[13.7.2.0^3,6.0^18,23]tetracosa[8,15,17,23]tetraen]-14′-one 12′,12′-dioxide]","ring closure, isolated yield","from C=CC[C@@H](C)S(=O)(=O)NC(=O)c1ccc2c(c1)N(C[C@@H]1CC[C@H]1[C@@H](O)C=C)C[C@@]1(CCCc3cc(Cl)ccc31)CO2, rcm bond, 15-membered ring, Hoveyda-Grubbs II, DCM, 2.65 mM, 7.0 h",23.8%
same,IC50,[2]; [5],0.46 nM
same,IC50,[3],1180 nM
"C[C@@H]1CC/C=C/[C@H](O)[C@@H]2CC[C@H]2CN2C[C@@]3(CCCc4nc(Cl)ccc43)COc3ccc(cc32)C(=O)NS1(=O)=O [Example 791, (3R,6R,7S,8E,12R,22S)-2′-chloro-7-hydroxy-12-methyl-7′,8′-dihydro-6′H,15H-spiro[20-oxa-13-thia-1,14-diazatetracyclo [14.7.2.0^3,6.0^19,24]pentacosa-8,16,18,24-tetraene-22,5′-quinolin]-15-one 13,13-dioxide]","ring closure, isolated yield","from C=CCC[C@@H](C)S(=O)(=O)NC(=O)c1ccc2c(c1)N(C[C@@H]1CC[C@H]1[C@@H](O)/C=C/CCC)C[C@@]1(CCCc3nc(Cl)ccc31)CO2, rcm bond, 16-membered ring, Hoveyda-Grubbs II, AcOH, 1.98 mM",40%
same,IC50,[2]; [5],6.21 nM
same,IC50,[3],23300 nM
"CC[C@@H]1CC/C=C/[C@H](O)[C@@H]2CC[C@H]2CN2C[C@@]3(CCCc4nc(Cl)ccc43)COc3ccc(cc32)C(=O)NS1(=O)=O [Example 798, (3R,6R,7S,8E,12R,22S)-2′-chloro-12-ethyl-7-hydroxy-7′,8′-dihydro-6′H,15H-spiro[20-oxa-13-thia-1,14-diazatetracyclo[14.7.2.0^3,6.0^19,24]pentacosa-8,16,18,24-tetraene-22,5′-quinolin]-15-one 13,13-dioxide]","ring closure, isolated yield","from C=CCC[C@@H](CC)S(=O)(=O)NC(=O)c1ccc2c(c1)N(C[C@@H]1CC[C@H]1[C@@H](O)/C=C/CCC)C[C@@]1(CCCc3nc(Cl)ccc31)CO2, rcm bond, 16-membered ring, Hoveyda-Grubbs II, AcOH, 2.04 mM",39%
same,IC50,[2]; [5],2.42 nM
same,IC50,[3],9260 nM
"(1S,3′R,6′R,7′S,8′Z,12′S)-12′-((2R)-2-((tert-butyl(diphenyl)silyl)oxy)propyl)-6-chloro-7′-hydroxy-3,4-dihydro-2H,15′H-spiro[naphthalene-1,22′-[20]oxa[13]thia[1,14]diazatetracyclo[14.7.2.0^3,6.0^19,24]pentacosa[8,16,18,24]tetraen]-15′-one 13′,13′-dioxide or (1S,3′R,6′R,7′S,8′Z,12′R)-12′-((2R)-2-((tert-butyl(diphenyl)silyl)oxy)propyl)-6-chloro-7′-hydroxy-3,4-dihydro-2H,15′H-spiro[naphthalene-1,22′-[20]oxa[13]thia[1,14]diazatetracyclo[14.7.2.0^3,6.0^19,24]pentacosa[8,16,18,24]tetraen]-15′-one 13′,13′-dioxide","ring closure, isolated yield","rcm bond, 16-membered ring, Hoveyda-Grubbs II (10 mol%), DCM, 1.5 mM, 45.0 °C",30%
"(1S,3′R,6′R,7′S,9′Z,12′S)-6-chloro-7′-hydroxy-12′-(trifluoromethyl)-3,4-dihydro-2H,15′H-spiro[naphthalene-1,22′-[20]oxa[13]thia[1,14]diazatetracyclo[14.7.2.0^3,6.0^19,24]pentacosa [9,16,18,24]tetraen]-15′-one 13′,13′-dioxide and [...] (1S,3′R,6′R,7′S,9′E,12′S)-6-chloro-7′-hydroxy-12′-(trifluoromethyl)-3,4-dihydro-2H,15′H-spiro[naphthalene-1,22′-[20]oxa[13]thia[1,14]diazatetracyclo[14.7.2.0^3,6.0^19,24]pentacosa [9,16,18,24]tetraen]-15′-one 13′,13′-dioxide and (1S,3′R,6′R,7′S,9′E,12′R)-6-chloro-7′-hydroxy-12′-(trifluoromethyl)-3,4-dihydro-2H,15′H-spiro[naphthalene-1,22′-[20]oxa[13]thia[1,14]diazatetracyclo[14.7.2.0^3,6.0^19,24]pentacosa [9,16,18,24]tetraen]-15′-one 13′,13′-dioxide","ring closure, isolated yield","rcm bond, 16-membered ring, Hoveyda-Grubbs II, toluene, 2.4 mM, 101.0 °C",63%
"[(1S,3′R,6′R,7′S,8′Z,12′R)-12′-((2R)-2-((tert-butyl(diphenyl)silyl)oxy)propyl)-6-chloro-7′-hydroxy-3,4-dihydro-2h,15′h-spiro[naphthalene-1,22′-[20]oxa[13]thia[1,14]diazatetracyclo[14.7.2.0^3,6.0^19,24]pentacosa[8,16,18,24]tetraen]-15′-one 13′,13′-dioxide and (1S,3′R,6′R,7′S,8′E,12′R)-12′-((2R)-2-((tert-butyl(diphenyl)silyl)oxy)propyl)-6-chloro-7′-hydroxy-3,4-dihydro-2h,15′h-spiro[naphthalene-1,22′-[20]oxa[13]thia[1,14]diazatetracyclo[14.7.2.0^3,6.0^19,24]pentacosa[8,16,18,24]tetraen]-15′-one 13′,13′-dioxide] or [(1S,3′R,6′R,7′S,8′Z,12′S)-12′-((2R)-2-((tert-butyl(diphenyl)silyl)oxy)propyl)-6-chloro-7′-hydroxy-3,4-dihydro-2h,15′h-spiro[naphthalene-1,22′-[20]oxa[13]thia[1,14]diazatetracyclo[14.7.2.0^3,6.0^19,24]pentacosa[8,16,18,24]tetraen]-15′-one 13′,13′-dioxide and (1S,3′R,6′R,7′S,8′E,12′S)-12′-((2R)-2-((tert-butyl(diphenyl)silyl)oxy)propyl)-6-chloro-7′-hydroxy-3,4-dihydro-2h,15′h-spiro[naphthalene-1,22′-[20]oxa[13]thia[1,14]diazatetracyclo[14.7.2.0^3,6.0^19,24]pentacosa[8,16,18,24]tetraen]-15′-one 13′,13′-dioxide]","ring closure, isolated yield","rcm bond, 16-membered ring, Hoveyda-Grubbs II, DCM, 1.4 mM, 45.0 °C",38%
same,"ring closure, isolated yield","rcm bond, 16-membered ring, Hoveyda-Grubbs II, DCM, 1.51 mM, 45.0 °C",52%
